The assay has as its target T1, human Cereblon WT GST-tagged protein (Homo sapiens, UniProt Q96SW2).
T1 construct: purchased CISBIO 64BDCRBNPEH
Description: CRBN binding, HTRF (CEREBLON BINDING kit). The conditions noted are these: Table II-2, CRBN binding screening, HTRF; for inhibition at 0.5 µM: read-out: Inhibition rate (%) at 0.5µM; for inhibition at 2 µM: read-out: Inhibition rate (%) at 2 µM. On the procedure: The CEREBLON BINDING kits (specification: 10,000 tests; product number: Catalog # 64BDCRBNPEH; CISBIO company) was used to determine the CRBN binding ability of the compounds to be tested through a HTRF method (homogeneous time-resolved fluorescence). The specific methods are as follows: • 1. […] Then, 2.5 µL of human Cereblon WT GST-tagged protein solution was added to each well. Finally, 5 µL of the thoroughly mixed Thalidomide-Re reagent and GST Eu antibody working solution were added to each of the aforementioned wells. […] The blank control wells were sequentially added with 2.5 µL of diluent #9 (1X) solution, 2.5 µL of binding buffer, and 5 µL of thoroughly mixed Thalidomide-Re reagent and GST Eu antibody working solution. • 4. After sealing and incubating the solutions in the aforementioned wells at room temperature for 3 hours, the […] at emission wavelengths of 620 nm and 665 nm were detected by the HTRF method using a Spark microplate reader (V3.1 SP1).

T1 sequence (Q96SW2 whole entry): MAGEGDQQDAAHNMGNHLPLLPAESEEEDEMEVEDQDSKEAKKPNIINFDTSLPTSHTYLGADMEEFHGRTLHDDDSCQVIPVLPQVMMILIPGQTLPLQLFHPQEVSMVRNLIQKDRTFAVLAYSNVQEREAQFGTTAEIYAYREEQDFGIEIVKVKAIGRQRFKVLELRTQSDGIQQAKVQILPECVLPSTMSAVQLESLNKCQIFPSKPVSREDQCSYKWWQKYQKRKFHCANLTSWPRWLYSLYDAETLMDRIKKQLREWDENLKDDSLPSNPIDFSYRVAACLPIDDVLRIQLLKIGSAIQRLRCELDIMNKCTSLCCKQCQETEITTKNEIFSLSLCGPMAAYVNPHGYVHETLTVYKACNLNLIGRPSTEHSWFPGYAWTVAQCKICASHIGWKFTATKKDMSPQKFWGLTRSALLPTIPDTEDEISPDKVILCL

Regarding `O=C1CCN(c2cncc(CN3CCC(n4cc(NC(=O)c5cnn6ccc(N7CCOCC7)nc56)c(C(F)F)n4)CC3)c2)C(=O)N1` [GT-07766, N-(3-(difluoromethyl)-1-(1-((5-(2,4-dioxotetrahydropyrimidin-1(2H)-yl)pyridin-3-yl)methyl)piperidin-4-yl)-1H-pyrazol-4-yl)-5-morpholinopyrazolo[1,5-a]pyrimidine-3-carboxamide], the inhibition at 0.5 µM fell in the range of 30 to 40% and the inhibition at 2 µM is 60 to 80%.
For the compound `O=C1CCC(c2cnc(F)c(CN3CCC(n4cc(NC(=O)c5cnn6ccc(N7CCOCC7)nc56)c(C(F)F)n4)CC3)c2)C(=O)N1` (stereo not shown) [GT-07767, N-(3-(difluoromethyl)-1-(1-((5-(2,6-dioxopiperidin-3-yl)-2-fluoropyridin-3-yl)methyl)piperidin-4-yl)-1H-pyrazol-4-yl)-5-morpholinopyrazolo[1,5-a]pyrimidine-3-carboxamide], the inhibition at 0.5 µM lay within 40 to 53% and the inhibition at 2 µM fell in the range of 80 to 100%.
Take `O=C1CCC(c2ccc(CN3CCC(n4cc(NC(=O)c5cnn6ccc(N7CCOCC7)nc56)c(C(F)F)n4)CC3)nc2)C(=O)N1` (stereo not shown) [GT-07769, N-(3-(difluoromethyl)-1-(1-((5-(2,6-dioxopiperidin-3-yl)pyridin-2-yl)methyl)piperidin-4-yl)-1H-pyrazol-4-yl)-5-morpholinopyrazolo[1,5-a]pyrimidine-3-carboxamide]: the inhibition at 0.5 µM lay in the range of 40 to 53% and the inhibition at 2 µM lay in the range of 80 to 100%.
For `O=C1CCC(c2cncc(CN3CCC(n4cc(NC(=O)c5cnn6ccc(N7CCOCC7)nc56)c(C(F)F)n4)CC3)c2)C(=O)N1` (stereo not shown) [GT-07770, N-(3-(difluoromethyl)-1-(1-((5-(2,6-dioxopiperidin-3-yl)pyridin-3-yl)methyl)piperidin-4-yl)-1H-pyrazol-4-yl)-5-morpholinopyrazolo[1,5-a]pyrimidine-3-carboxamide], the inhibition at 0.5 µM lay in the range of 30 to 40% and the inhibition at 2 µM fell in the range of 80 to 100%.
For `O=C1CCN(c2cncc(CN3CCC(n4cc(NC(=O)c5cnn6ccc(N7C[C@H]8C[C@@H]7CO8)nc56)c(C(F)F)n4)CC3)c2)C(=O)N1` [GT-07774, 5-((1R,4R)-2-oxa-5-azabicyclo[2.2.1]heptan-5-yl)-N-(3-(difluoromethyl)-1-(1-((5-(2,4-dioxotetrahydropyrimidin-1(2H)-yl)pyridin-3-yl)methyl)piperidin-4-yl)-1H-pyrazol-4-yl)pyrazolo[1,5-a]pyrimidine-3-carboxamide], the inhibition at 0.5 µM was 40 to 53% and the inhibition at 2 µM is 80 to 100%.
As for `O=C1CCC(c2cnc(F)c(CN3CCC(n4cc(NC(=O)c5cnn6ccc(N7C[C@H]8C[C@@H]7CO8)nc56)c(C(F)F)n4)CC3)c2)C(=O)N1` (stereo partly drawn) [GT-07775, 5-((1R,4R)-2-oxa-5-azabicyclo[2.2.1]heptan-5-yl)-N-(3-(difluoromethyl)-1-(1-((5-(2,6-dioxopiperidin-3-yl)-2-fluoropyridin-3-yl)methyl)piperidin-4-yl)-1H-pyrazol-4-yl)pyrazolo[1,5-a]pyrimidine-3-carboxamide], the inhibition at 0.5 µM lay in the range of 60 to 80% and the inhibition at 2 µM is 80 to 100%.
Turning to `O=C1CCC(c2cc(CN3CCC(n4cc(NC(=O)c5cnn6ccc(N7C[C@H]8C[C@@H]7CO8)nc56)c(C(F)F)n4)CC3)ccn2)C(=O)N1` (stereo partly drawn) [GT-07776, 5-((1R,4R)-2-oxa-5-azabicyclo[2.2.1]heptan-5-yl)-N-(3-(difluoromethyl)-1-(1-((2-(2,6-dioxopiperidin-3-yl)pyridin-4-yl)methyl)piperidin-4-yl)-1H-pyrazol-4-yl)pyrazolo[1,5-a]pyrimidine-3-carboxamide], the inhibition at 0.5 µM lay within 20 to 30% and the inhibition at 2 µM is 60 to 80%.
Turning to `O=C1CCC(c2ccc(CN3CCC(n4cc(NC(=O)c5cnn6ccc(N7C[C@H]8C[C@@H]7CO8)nc56)c(C(F)F)n4)CC3)nc2)C(=O)N1` (stereo partly drawn) [GT-07777, 5-((1R,4R)-2-oxa-5-azabicyclo[2.2.1]heptan-5-yl)-N-(3-(difluoromethyl)-1-(1-((5-(2,6-dioxopiperidin-3-yl)pyridin-2-yl)methyl)piperidin-4-yl)-1H-pyrazol-4-yl)pyrazolo[1,5-a]pyrimidine-3-carboxamide], the inhibition at 0.5 µM fell in the range of 53 to 60% and the inhibition at 2 µM fell in the range of 80 to 100%.
Take `O=C1CCC(c2cncc(CN3CCC(n4cc(NC(=O)c5cnn6ccc(N7C[C@H]8C[C@@H]7CO8)nc56)c(C(F)F)n4)CC3)c2)C(=O)N1` (stereo partly drawn) [GT-07778, 5-((1R,4R)-2-oxa-5-azabicyclo[2.2.1]heptan-5-yl)-N-(3-(difluoromethyl)-1-(1-((5-(2,6-dioxopiperidin-3-yl)pyridin-3-yl)methyl)piperidin-4-yl)-1H-pyrazol-4-yl)pyrazolo[1,5-a]pyrimidine-3-carboxamide]: the inhibition at 0.5 µM is 40 to 53% and the inhibition at 2 µM was in the range of 80 to 100%.
As to `CC(C)Nc1cc(-n2ccc3cc(C#N)cnc32)ncc1C(=O)NC1CCN(Cc2cc(N3CCC(=O)NC3=O)cnc2F)CC1` [GT-07779, 6-(5-cyano-1H-pyrrolo[2,3-b]pyridin-1-yl)-N-(1-((5-(2,4-dioxotetrahydropyrimidin-1(2H)-yl)-2-fluoropyridin-3-yl)methyl)piperidin-4-yl)-4-(isopropylamino)nicotinamide], the inhibition at 0.5 µM fell in the range of 20 to 30% and the inhibition at 2 µM was in the range of 60 to 80%.
On to `CC(C)(O)c1cc2nn(C3CCN(Cc4cc(N5CCC(=O)NC5=O)cnc4F)CC3)cc2cc1NC(=O)c1cccc(C(F)(F)F)n1` [GT-07783, N-(2-(1-((5-(2,4-dioxotetrahydropyrimidin-1(2H)-yl)-2-fluoropyridin-3-yl)methyl)piperidin-4-yl)-6-(2-hydroxypropan-2-yl)-2H-indazol-5-yl)-6-(trifluoromethyl)picolinamide], for which the inhibition at 0.5 µM lay in the range of 30 to 40% and the inhibition at 2 µM lay in the range of 60 to 80%.
As for `O=C1CCN(c2cnc(F)c(CN3CCC(n4cc(NC(=O)c5cnn6ccc(N7CCOCC7)nc56)c(C(F)F)n4)CC3)c2)C(=O)N1` [GT-07789, N-(3-(difluoromethyl)-1-(1-((5-(2,4-dioxotetrahydropyrimidin-1(2H)-yl)-2-fluoropyridin-3-yl)methyl)piperidin-4-yl)-1H-pyrazol-4-yl)-5-morpholinopyrazolo[1,5-a]pyrimidine-3-carboxamide], the inhibition at 0.5 µM is 20 to 30% and the inhibition at 2 µM lay within 60 to 80%.
The matching figures for `O=C1CCN(c2cnc(F)c(CN3CCC(n4cc(NC(=O)c5cnn6ccc(N7C[C@H]8C[C@@H]7CO8)nc56)c(C(F)F)n4)CC3)c2)C(=O)N1` [GT-07791, 5-((1R,4R)-2-oxa-5-azabicyclo[2.2.1]heptan-5-yl)-N-(3-(difluoromethyl)-1-(1-((5-(2,4-dioxotetrahydropyrimidin-1(2H)-yl)-2-fluoropyridin-3-yl)methyl)piperidin-4-yl)-1H-pyrazol-4-yl)pyrazolo[1,5-a]pyrimidine-3-carboxamide]: 30 to 40% and 60 to 80%.
Take `CC(C)(O)c1cc2nn(C3CCN(Cc4cc(C5CCC(=O)NC5=O)cnc4F)CC3)cc2cc1NC(=O)c1cccc(C(F)(F)F)n1` (stereo not shown) [GT-07793, N-(2-(1-((5-(2,6-dioxopiperidin-3-yl)-2-fluoropyridin-3-yl)methyl)piperidin-4-yl)-6-(2-hydroxypropan-2-yl)-2H-indazol-5-yl)-6-(trifluoromethyl)picolinamide]: the inhibition at 0.5 µM was 60 to 80% and the inhibition at 2 µM was 80 to 100%.
The matching figures for `COc1cc2nn(C3CCN(Cc4cc(N5CCC(=O)NC5=O)cnc4F)CC3)cc2cc1NC(=O)c1cccc(C(F)(F)F)n1` [GT-07799, N-(2-(1-((5-(2,4-dioxotetrahydropyrimidin-1(2H)-yl)-2-fluoropyridin-3-yl)methyl)piperidin-4-yl)-6-methoxy-2H-indazol-5-yl)-6-(trifluoromethyl)picolinamide]: 20 to 30% and 60 to 80%.
`CN(Cc1cc(N2CCC(=O)NC2=O)cnc1F)C1CCN(c2ccc(-c3cc(F)c4c(c3)C(=O)N(C(C(=O)Nc3nccs3)c3ncn5c3CCC5)C4)cc2)CC1` (stereo not shown) [GT-07823, 2-(6,7-dihydro-5H-pyrrolo[1,2-c]imidazol-1-yl)-2-(6-(4-(4-(((5-(2,4-dioxotetrahydropyrimidin-1(2H)-yl)-2-fluoropyridin-3-yl)methyl)(methyl)amino)piperidin-1-yl)phenyl)-4-fluoro-1-oxoisoindolin-2-yl)-N-(thiazol-2-yl)acetamide]: the inhibition at 0.5 µM lay within 53 to 60% and the inhibition at 2 µM was 80 to 100%.
On to `O=C1CCN(c2cnc(F)c(CN3C[C@H]4C[C@@H]3CN4c3ccc(-c4cc(F)c5c(c4)C(=O)N(C(C(=O)Nc4nccs4)c4ncn6c4CCC6)C5)cc3)c2)C(=O)N1` (stereo partly drawn) [GT-07825, 2-(6,7-dihydro-5H-pyrrolo[1,2-c]imidazol-1-yl)-2-(6-(4-((1R,4R)-5-((5-(2,4-dioxotetrahydropyrimidin-1(2H)-yl)-2-fluoropyridin-3-yl)methyl)-2,5-diazabicyclo[2.2.1]heptan-2-yl)phenyl)-4-fluoro-1-oxoisoindolin-2-yl)-N-(thiazol-2-yl)acetamide], for which the inhibition at 0.5 µM lay within 60 to 80% and the inhibition at 2 µM fell in the range of 80 to 100%.

The values above are taken from patent EP4678638A1, “NEW E3 UBIQUITIN LIGASE LIGAND, PROTEIN DEGRADATION AGENT AND USE THEREOF” (priority 2023, dated 2024).
